Several values for one entry are separate records, joined by “and”; a condition that tells them apart may be missing. Equal values may be shown once.
Tested on: KRAS-mutant PDC tumor spheroid with HUVEC/MSC, viability
Assay: Anticancer human tumor 327498-153-R-J2-PDC patient-derived uterine carcinosarcoma cell line growth inhibition [KRAS2]
Conditions: for viability, T/C: stronger effect = lower value
Summary of the method: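 KRAS-mutant tumor cells were grown as spheroids with HUVEC endothelial cells and human MSCs as stroma. Targeted agents were tested alone and with KRAS pathway inhibitors. Doses started at or near clinical Cmax, or 10 microM, descending half-log.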

[1] = curve of first compound, second compound 0.1 µM
[2] = curve of first compound, second compound 0.316 µM
[3] = curve of first compound, second compound 1 µM
[4] = curve of first compound, second compound 3.16 µM
[5] = curve of first compound, second compound 10 µM
[6] = second compound 0.1 µM, first compound 0.0316 µM
[7] = second compound 0.1 µM, first compound 0.1 µM
[8] = second compound 0.1 µM, first compound 0.316 µM
[9] = second compound 0.1 µM, first compound 1 µM
[10] = second compound 0.1 µM, first compound 3.16 µM
[11] = second compound 0.1 µM, first compound 10 µM
[12] = second compound 0.316 µM, first compound 0.0316 µM
[13] = second compound 0.316 µM, first compound 0.1 µM
[14] = second compound 0.316 µM, first compound 0.316 µM
[15] = second compound 0.316 µM, first compound 1 µM
[16] = second compound 0.316 µM, first compound 3.16 µM
[17] = second compound 0.316 µM, first compound 10 µM
[18] = second compound 1 µM, first compound 0.0316 µM
[19] = second compound 1 µM, first compound 0.1 µM
[20] = second compound 1 µM, first compound 0.316 µM
[21] = second compound 1 µM, first compound 1 µM
[22] = second compound 1 µM, first compound 3.16 µM
[23] = second compound 1 µM, first compound 10 µM
[24] = second compound 3.16 µM, first compound 0.0316 µM
[25] = second compound 3.16 µM, first compound 0.1 µM
[26] = second compound 3.16 µM, first compound 0.316 µM
[27] = second compound 3.16 µM, first compound 1 µM
[28] = second compound 3.16 µM, first compound 3.16 µM
[29] = second compound 3.16 µM, first compound 10 µM
[30] = second compound 10 µM, first compound 0.0316 µM
[31] = second compound 10 µM, first compound 0.1 µM
[32] = second compound 10 µM, first compound 0.316 µM
[33] = second compound 10 µM, first compound 1 µM
[34] = second compound 10 µM, first compound 3.16 µM
[35] = second compound 10 µM, first compound 10 µM
[36] = second compound 0.1 µM, first compound 0.01 µM
[37] = second compound 0.316 µM, first compound 0.01 µM
[38] = second compound 1 µM, first compound 0.01 µM
[39] = second compound 3.16 µM, first compound 0.01 µM
[40] = second compound 10 µM, first compound 0.01 µM
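Note: spheroids exposed to agents for seven days before reading.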
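Throughout, for viability, T/C: 100% = DMSO vehicle wells so lower means fewer viable cells.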

Compound | IC50 [1] [nM] | IC50 [2] [nM] | IC50 [3] [nM] | IC50 [4] [nM] | IC50 [5] [nM] | viability, T/C [6] [%] | viability, T/C [7] [%] | viability, T/C [8] [%] | viability, T/C [9] [%] | viability, T/C [10] [%] | viability, T/C [12] [%] | viability, T/C [13] [%] | viability, T/C [14] [%] | viability, T/C [15] [%] | viability, T/C [16] [%] | viability, T/C [18] [%] | viability, T/C [19] [%] | viability, T/C [20] [%] | viability, T/C [21] [%] | viability, T/C [22] [%] | other results
CCNC(=O)CC1N=C(c2ccc(Cl)cc2)c2cc(OC)ccc2-n2c(C)nnc21 (stereo not drawn) + COc1cc2nc(C)nc(NC(C)c3cc(N)cc(C(F)(F)F)c3)c2cc1OC1CCOC1 | 459 | 420 | 352 | 189 | 172 | 84.7 | 81.5 | 59.2 | 30.5 | 21.1 | 74 | 69.1 | 57.6 | 27.5 | 23.2 | 75.6 | 75.2 | 52.7 | 22.6 | 20.4 | viability, T/C [11]: 20.4%; viability, T/C [17]: 24.2%; viability, T/C [23]: 18.2%; viability, T/C [24]: 75%; viability, T/C [25]: 56%; viability, T/C [26]: 47.2%; viability, T/C [27]: 26.5%; viability, T/C [28]: 20.6%; viability, T/C [29]: 21.7%; viability, T/C [30]: 63.7%; viability, T/C [31]: 52.7%; viability, T/C [32]: 46.4%; viability, T/C [33]: 23.6%; viability, T/C [34]: 19.5%; viability, T/C [35]: 13.9%
CC(=O)OC12COC1CC(O)C1(C)C(=O)C(O)C3=C(C)C(OC(=O)C(O)C(NC(=O)OC(C)(C)C)c4ccccc4)CC(O)(C(OC(=O)c4ccccc4)C21)C3(C)C (stereo not drawn) + C=CC(=O)N1CCN(c2nc(=O)n(-c3c(C)ccnc3C(C)C)c3nc(-c4c(O)cccc4F)c(F)cc23)C(C)C1 | < 10 | < 10 | < 10 | < 10 | < 10 | 6.6 | 5.43 | 6.55 | 9.48 | 11.1 | 6.11 | 5.72 | 7.34 | 8.77 | 13.1 | 5.71 | 10.5 | 8.73 | 8.75 | 10.7 | viability, T/C [36]: 8.43%; viability, T/C [37]: 7.73%; viability, T/C [38]: 9.81%; viability, T/C [39]: 9.54%; viability, T/C [24]: 7.63%; viability, T/C [25]: 7.71%; viability, T/C [26]: 10.1%; viability, T/C [27]: 11.2%; viability, T/C [28]: 12.2%; viability, T/C [40]: 11.1%; viability, T/C [30]: 9.72%; viability, T/C [31]: 12.5%; viability, T/C [32]: 13.3%; viability, T/C [33]: 12.3%; viability, T/C [34]: 12.8%
CC1(C)CCC(CN2CCN(c3ccc(C(=O)NS(=O)(=O)c4ccc(NCC5CCOCC5)c([N+](=O)[O-])c4)c(Oc4cnc5[nH]ccc5c4)c3)CC2)=C(c2ccc(Cl)cc2)C1 + CNCc1ccccc1-c1csc(C(C)Nc2nc(C)nc3cc(OC)c(OC)cc23)c1 | 3280 | 2710 | 1930 | < 31.6 | < 31.6 | 90.5 | 78.1 | 79.4 | 77.5 | 50.8 | 84.3 | 79.5 | 73.2 | 76.4 | 46 | 72.5 | 72.8 | 71.3 | 72.3 | 33.2 | viability, T/C [11]: 13.7%; viability, T/C [17]: 9.74%; viability, T/C [23]: 1.07%; viability, T/C [24]: 1.08%; viability, T/C [25]: 0.13%; viability, T/C [26]: 0.22%; viability, T/C [27]: 0.13%; viability, T/C [28]: 0.09%; viability, T/C [29]: 0.25%; viability, T/C [30]: 0.41%; viability, T/C [31]: 0.15%; viability, T/C [32]: 0.26%; viability, T/C [33]: 0.14%; viability, T/C [34]: 0.16%; viability, T/C [35]: 0.23%
CC(C)NCC(C(=O)N1CCN(c2ncnc3c2C(C)CC3O)CC1)c1ccc(Cl)cc1 (stereo not drawn) + C=CC(=O)N1CCN(c2nc(=O)n(-c3c(C)ccnc3C(C)C)c3nc(-c4c(O)cccc4F)c(F)cc23)C(C)C1 | 41.8 | < 31.6 | < 31.6 | < 31.6 | < 31.6 | 54.5 | 36.3 | 22.2 | 15.3 | 11.2 | 46.5 | 32.4 | 15.7 | 13.5 | 11 | 48.2 | 29.6 | 19.9 | 13.5 | 10.4 | viability, T/C [11]: 9.06%; viability, T/C [17]: 7.87%; viability, T/C [23]: 7.77%; viability, T/C [24]: 39.5%; viability, T/C [25]: 27.3%; viability, T/C [26]: 17.8%; viability, T/C [27]: 12.2%; viability, T/C [28]: 9.99%; viability, T/C [29]: 8.2%; viability, T/C [30]: 33.5%; viability, T/C [31]: 18.2%; viability, T/C [32]: 14.6%; viability, T/C [33]: 9.84%; viability, T/C [34]: 9.14%; viability, T/C [35]: 3.03%
CC1(C)CCC(CN2CCN(c3ccc(C(=O)NS(=O)(=O)c4ccc(NCC5CCOCC5)c([N+](=O)[O-])c4)c(Oc4cnc5[nH]ccc5c4)c3)CC2)=C(c2ccc(Cl)cc2)C1 | – | – | – | – | – | – | – | – | – | – | – | – | – | – | – | – | – | – | – | – | viability, T/C (compound 0.0316 µM): 101% [middle of 5 runs]; viability, T/C (compound 0.1 µM): 98.9% [middle of 5 runs]; viability, T/C (compound 0.316 µM): 99.3% [middle of 5 runs]; viability, T/C (compound 1 µM): 97.8% [middle of 5 runs]; viability, T/C (compound 3.16 µM): 74.3% [middle of 5 runs]; viability, T/C (compound 10 µM): 15.3% [middle of 5 runs]; IC50 (curve of compound): 4.81 µM [middle of 5 runs]
CC(C)NCC(C(=O)N1CCN(c2ncnc3c2C(C)CC3O)CC1)c1ccc(Cl)cc1 (stereo not drawn) + COc1cc2nc(C)nc(NC(C)c3cc(N)cc(C(F)(F)F)c3)c2cc1OC1CCOC1 | 195 | 102 | 90.7 | < 31.6 | < 31.6 | 70.8 | 57.7 | 44 | 26.3 | 9.54 | 62.5 | 49.5 | 34.4 | 21.7 | 8.09 | 60 | 51 | 28.8 | 17.7 | 7.32 | viability, T/C [11]: 9.87%; viability, T/C [17]: 9.57%; viability, T/C [23]: 3.46%; viability, T/C [24]: 54.4%; viability, T/C [25]: 42.1%; viability, T/C [26]: 43.6%; viability, T/C [27]: 14.2%; viability, T/C [28]: 8.44%; viability, T/C [29]: 8.27%; viability, T/C [30]: 37.8%; viability, T/C [31]: 27.3%; viability, T/C [32]: 16.6%; viability, T/C [33]: 5.51%; viability, T/C [34]: 0.16%; viability, T/C [35]: 0.34%
CC1COCCN1c1cc(-c2ccnn2C)c2ccnc(-c3ccn[nH]3)c2n1 (stereo not drawn) + CC1OCC2(CCN(c3cnc(Sc4ccnc(N)c4Cl)c(N)n3)CC2)C1N | 21 | < 10 | < 10 | < 10 | < 10 | 39 | 8.18 | 6.79 | 8.72 | 6.58 | 21.5 | 8.27 | 5.01 | 7.64 | 4.81 | 14.8 | 7.95 | 4.88 | 4.72 | 4.24 | viability, T/C [36]: 70%; viability, T/C [37]: 37.1%; viability, T/C [38]: 31.1%; viability, T/C [39]: 23.2%; viability, T/C [24]: 12.1%; viability, T/C [25]: 8.55%; viability, T/C [26]: 5.44%; viability, T/C [27]: 5.2%; viability, T/C [28]: 3.81%; viability, T/C [40]: 19.6%; viability, T/C [30]: 13.4%; viability, T/C [31]: 7.85%; viability, T/C [32]: 6.38%; viability, T/C [33]: 5.34%; viability, T/C [34]: 3.63%
C=CC(=O)N1CCN(c2nc(=O)n(-c3c(C)ccnc3C(C)C)c3nc(-c4c(O)cccc4F)c(F)cc23)C(C)C1 (stereo not drawn) | – | – | – | – | – | – | – | – | – | – | – | – | – | – | – | – | – | – | – | – | IC50 (compound alone, run of 07/12/2021): > 10000 nM and 1310 nM and 1220 nM

Reference: PubChem BioAssay AID1963867 (Molecular Pharmacology Branch, DTP, NCI, 2024)
